Test results as given in PMC9385722 (Scientific Reports, 2022).

Target: T1, TaHeR (Thermoplasmatales archaeon SG8-52-1, UniProt Z9O312AX90)
T1 construct: wild type, N-terminal 6xHis tag, pET21a(+), E. coli C43(DE3), purified in octyl glucoside; symmetric dimer, one protomer in asymmetric unit
T1 sequence (Z9O312AX90 1-259): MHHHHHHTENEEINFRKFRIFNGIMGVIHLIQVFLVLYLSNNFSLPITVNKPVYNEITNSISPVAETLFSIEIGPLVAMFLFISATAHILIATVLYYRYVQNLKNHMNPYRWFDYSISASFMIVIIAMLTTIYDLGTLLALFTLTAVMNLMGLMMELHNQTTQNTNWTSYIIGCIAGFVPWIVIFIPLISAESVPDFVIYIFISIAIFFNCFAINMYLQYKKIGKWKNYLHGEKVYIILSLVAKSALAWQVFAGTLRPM
Experiment: absorption red-shift titration with NaCl
Type: binding
Conditions: pH 5.0, up to 300 mM NaCl; anion site in Schiff base cavity near protonated Glu-108; crystal structure at pH 4.5 also shows a second, extracellular chloride

SMILES: Cl [chloride]
- Kd: ~67 mM
